This note sets out measurements from a melting point compilation (Tetko et al.; mined from patent text by program, amines drawn as free bases though some values may be those of a salt).

In general, melting point refers to the temperature of the solid-liquid transition. Molecule `CCS(=O)(=O)c1cc(C(C)(C)C)cc(C=O)c1O` gave a melting point of 92 to 93 °C. Molecule `CC(C)CC(=O)Nc1cccc(-c2ccnc3c(-c4cccc(CN(C)C)c4)cnn23)c1` yielded a melting point of 179 to 182 °C.

`COC1(c2nc3c(F)cccc3s2)C=CC(=NS(=O)(=O)c2ccc(C)cc2)C=C1` (stereo unspecified) returned a melting point of 176 °C. Regarding `Cc1ccc(S(=O)(=O)N2CCCC2c2nnnn2[C@@](C)(Cc2ccc([N+](=O)[O-])cc2)C(=O)O)cc1` (stereo partly specified), the melting point lay within 150 to 160 °C. `CCCCCCCCCCOc1ccc(Br)cc1OCCCCCCCCCC` yielded a melting point of 39.5 to 40 °C. Under `COc1cccc2cc(C(=O)c3ccc(Cl)c(N)c3)oc12` stands 180 °C; under `CC(C)Oc1ccc(C(CC(N)=O)N2C(=O)c3ccccc3C2=O)cc1OC(C)C` (stereo unspecified), 153 to 154 °C. Take `CCCCOc1ccc(NC(=O)c2cnc(C(=O)NCC(=O)OCC)c(Cl)c2)cc1`: the melting point is 177 to 179 °C. Under `CC(=O)OCc1c(C)n(C[C@H]2C[C@@H]2C)c2c(OCc3ccc(F)cc3)nncc12` stands 122 to 123 °C; under `Cn1nc(N)c(C(N)=O)c1N`, 213 to 215 °C.

`CCc1cc(C#N)cc(C(=O)Nc2ccc(F)cn2)n1` yielded a melting point of 184 °C. Under `COC(=O)CCc1cc(C(C)(C)C)c(O)c(C(C)(C)C)c1` stands 63 to 64.5 °C.

Molecule `O=Cc1ccccc1P(=O)(c1ccccc1)c1ccccc1` displayed a melting point of 131 to 134 °C. `CCc1c(C(C#N)c2cc(C)cc(C)c2)[nH]c(=O)[nH]c1=O` (stereo unspecified) showed a melting point of 105 to 107 °C. Under `Cc1ccccc1NC(=O)Nc1ccc(-c2c(C(C)C)sc3ncnc(N)c23)cc1` stands 233 to 234 °C; under `Cc1c(Cl)ccc2c1[nH]c1c(CO)cccc12`, 187 °C. The value for `CS(=O)(=O)c1ccc(C2SCC(=O)N2c2ccc(Cl)cc2)cc1` (stereo unspecified) was 231 to 233 °C. The molecule `Cc1cc2nc(C)c(S(=O)Cc3ccccc3N(C)C)nc2cc1C` (stereo unspecified) yielded a melting point of 83 to 88 °C. Under `NC(=O)c1cc(Oc2ccc(Cl)c(Cl)c2)cnc1O` stands 246 to 249 °C. The value for `CC(=NOCCOc1ccc(CC2SC(=O)NC2=O)cc1)c1cncc(-c2ccccc2)c1` (stereo unspecified) was 150 to 153 °C; that for `Cc1ccc(F)cc1C=S` was 45 to 47 °C. The value for `Nc1cc2c(cc1Cl)C(=O)C1(CC1)O2` was 201 °C.

`CCOC(=O)CC(=O)CC(c1ccccc1)c1ccc(OC)c(OC2CCCC2)c1` (stereo unspecified) returned a melting point of 56 to 58 °C. Under `Cc1c(C)c2c(c(C)c1N)CC(C)(CN(C)C)O2` (stereo unspecified) stands 66 to 67 °C. For `COc1ccc(Cn2cc(C)c3ccc(C(=O)c4ccccc4)cc32)cc1`, the melting point was in the range of 146 to 147 °C. For `CC1=CC(C)(C)c2ccc(Oc3ccc([N+](=O)[O-])cc3)cc2O1`, the melting point was 80 °C. Under `C/C=C\Cn1c(Oc2cc(C)cc(C)c2)c(C(C)C)c(=O)[nH]c1=O` stands 141 to 142 °C; under `CCOC(=O)C(N)N=Nc1ccc(Br)cc1C(=O)c1ccccn1` (stereo unspecified), 156 to 157 °C.

For `Cc1cc2nc(NC(=O)C(C)(C)C)[nH]c(=O)c2[nH]1`, the melting point lay within 156 to 157 °C. The value for `CS(=O)(=O)NCCCn1cnc(-c2ccc(F)cc2)c1-c1ccncc1` was 186 to 187 °C; that for `c1ccc(-c2cc3ccccc3s2)cc1` was 171 to 172 °C.

On to `Cc1cc(C2(C(F)(F)F)CN(c3ccc(C(=O)NCC(F)(F)F)cc3)CO2)ccc1F` (stereo unspecified), for which the melting point was in the range of 151 to 152 °C. The value for `CCc1nc2c(c(C)c(C)n3nnnc23)n1CCOCCN1CCCC1=O` was 141 to 143 °C; that for `CC(C)Sc1cc2c(cc1Cl)N=C(C(N)=O)NS2(=O)=O` was 279 to 280 °C.

In turn, `Nc1cc(OC2CCNCC2)c(F)c2c1c(=O)c(C(=O)O)cn2C1CC1` showed a melting point of more than 300 °C. The value for `Cn1c(S(=O)(=O)CCCl)nnc1S(=O)(=O)CCCl` was 156 °C; that for `CCN1CCNC(=O)c2ccc(Nc3ncc(Cl)c(Nc4ccccc4-c4nccn4C)n3)cc21` was 143 to 151 °C; that for `CC(C)n1nc(-c2c(NCc3ccco3)nc(N)nc2-c2ccccc2)ccc1=O` was 213 to 214 °C. As for `CSc1ncc2nc(C)nc(Nc3ccc(F)c(Cl)c3)c2n1`, the melting point fell in the range of 70 to 75 °C. Under `c1cncc(CC2(Cc3cccnc3)c3ccccc3-c3ccccc32)c1` stands 137 to 138 °C; under `Cc1cc(NC2=NCCN2C)n(C)n1`, 128 to 130 °C.

As for `O=C(Nc1nc(-c2ccccc2)c(-c2nc3ccccc3c(=O)n2-c2ccc(Cl)cc2)s1)c1ccccc1`, the melting point is more than 275 °C.

Consider `CCn1ncc2c3[nH]nc4c3c(nc21)CCc1ccccc1-4`, for which the melting point lay in the range of 229 to 231 °C. Molecule `CCCCC(=O)NC(Cc1ccccc1)C(=O)Nc1c(C(C)C)cccc1C(C)C` (stereo unspecified) displayed a melting point of 237 to 238 °C. The value for `Clc1ccc(C2(Cn3cncn3)CCC2)cc1` was 124 to 125 °C; that for `O=[N+]([O-])c1cccc2cc(-c3ccccn3)[nH]c12` was 162 to 163 °C; that for `CS(=O)(=O)c1ccc(C2=C(c3ccccc3)C(=O)C2)cc1` was 139 to 140 °C.

Molecule `Nc1nc(-c2cccnc2Cl)c(-c2cccnc2Cl)o1` gave a melting point of 243 to 244 °C. The value for `CC(=O)Nc1c(-c2ccccc2)c(=O)[nH]c2cc(Cl)ccc12` was 275 to 277 °C; that for `COc1ccccc1-c1nc(C)c(C(N)=O)s1` was 191 to 192 °C; that for `NNC(=O)C(F)(F)c1cccc(Cl)n1` was 165 to 167 °C. Under `CCOC(=O)CCN1CCN(CC2CN(c3ccc(C(=N)NC(=O)c4ccccc4)cc3)C(=O)O2)CC1` (stereo unspecified) stands 163 to 164 °C.

`O=C(O)c1cc(S(=O)(=O)NCCc2ccccc2Cl)ccc1Cl` displayed a melting point of 175 to 177 °C. Take `C#CCN(Cc1ccc2nc(C)[nH]c(=O)c2c1)c1ccc(C(=O)NCC(OC(C)=O)c2ccc([N+](=O)[O-])cc2)cc1` (stereo unspecified): the melting point fell in the range of 198 to 203 °C.

For `COc1ccc2c3c(c4cc(OC)c(OC)cc4c2c1)CC1CCCCN1C3` (stereo unspecified), the melting point was 193 to 195 °C. The value for `ClCc1nc2ccccc2c2ccnn12` was 135 to 136 °C; that for `N#Cc1c(N)nc2ccc(N3CCOCC3)cc2c1NCc1ccccc1` was 202 °C; that for `CS(=O)(=O)c1ccc(-c2cnc3cnc(-c4ccc(O)cc4)nc3c2)cc1` was 306 to 307 °C. Under `Cn1ncnc1COc1nn2c(-c3ccccc3F)nnc2cc1-c1cccs1` stands 189 to 190 °C; under `Cc1nc(N2CCCC2)nc2c1c(=O)c(C(=O)O)cn2C1CC1`, 253 °C. As to `OCCc1ccc(-c2ccc(F)cc2F)c(F)c1`, the melting point lay in the range of 44 to 45 °C. Under `CCNC1CCN(c2c(F)cc3c(=O)c(C(=O)O)cn(C4CC4)c3c2C)CC1(C)C` (stereo unspecified) stands 201 to 203 °C; under `O=C1OC(=O)[C@@H]2CCC[C@H]12`, 63 to 68 °C; under `O=C(OCc1ccc([N+](=O)[O-])cc1)N1CCC(I)CC1`, 102 to 104 °C. The molecule `Cc1nc2ccccn2c(=O)c1CC1CCCCC1` came in with a melting point of 112 to 114 °C. Under `O=P(O)(O)Oc1cccc(-c2nc3sccn3c2-c2cccc(N[C@@H]3CCCN(S(=O)(=O)c4ccc(Cl)cc4)C3)c2)c1` stands 239 to 245 °C; under `CCOC(=O)[C@](CC(=O)OC1CC(C)CCC1C(C)C)(NC(=O)OC(C)(C)C)C(N)=O` (stereo partly specified), 176 °C; under `CC1=C(CC2=NCCN2)CCc2ccccc21`, 223 to 224 °C. As for `CN1CC=C(c2c[nH]c3ccc(NC(=N)c4cccs4)cc23)C(F)C1` (stereo unspecified), the melting point fell in the range of 127 to 129 °C. The value for `O=C(O)c1ccc(OCCC(c2ccccc2)(c2ccccc2)c2ccccc2)cc1` was 201 to 202 °C; that for `CS(=O)(=O)c1ccc(C(CC2CCCC2)C(=O)Nc2ccc(C(=O)O)cn2)cc1` (stereo unspecified) was 191 to 193 °C; that for `O=CN1CCN(C2=C(O)C(=O)c3ccccc3C2=O)CC1` was 200 to 203 °C.

`CC1(C)CCCC1CNC(=O)C=Cc1ccc(C(=O)O)cc1` (stereo unspecified) gave a melting point of 138 to 140 °C. Under `COC(=O)c1ccccc1SC1=C(O)CC(CCc2ccccc2)(c2ccccc2)OC1=O` (stereo unspecified) stands 91 to 92 °C; under `COC(=O)[C@@]1(O)C[C@@H](OC(=O)c2ccccc2)[C@@H]2OC(C)(C)O[C@@H]2C1`, 109 to 110 °C. Turning to `COC(=O)CCn1c(C)c(Cc2cccnc2)c2c(CCC(=O)O)cccc21`, the melting point was 165 to 167 °C. The value for `NNc1ccc(Cl)c(Cl)c1Cl` was 138 to 140 °C; that for `Cc1cccc(C)c1NC(=O)CC1c2ccccc2Oc2ccccc21` was 249 to 250 °C. The value for `CCC(O)CC(O)CC` (stereo unspecified) was 60 to 65 °C; that for `CCOC(=O)CCCCCCn1c(=O)c(=O)[nH]c2cc(Br)ccc21` was 187 to 190 °C.

Molecule `Cc1c([N+](=O)[O-])ccnc1C(=O)NCCNC(=O)OC(C)(C)C` gave a melting point of 133 to 134 °C. The value for `CC(C)(C)c1cc(C2=NOC(CCOc3ccc([N+](=O)[O-])cc3)C2)cc(C(C)(C)C)c1O` (stereo unspecified) was 151 to 153 °C.

In the case of `N#Cc1cccc2c1CC(=NN)c1cccc(F)c1S2`, the melting point lay within 203 to 206 °C. The value for `CNC(=O)c1nc(Cl)c(Cl)[nH]1` was 240 °C; that for `Nc1cc(-c2c(-c3cccc(Cl)c3)nc3ccc(Cl)nn23)ccn1` was 268 to 269 °C. Turning to `CC(CC(=O)Nc1c(Cl)ccc2nc(CCCNCCCO)ccc12)c1ccccc1` (stereo unspecified), the melting point lay in the range of 118 to 120 °C.

With `COc1nc(-c2ccc(F)cc2C)c2c(n1)N(c1c(F)cccc1F)C(=O)NC2`, the melting point lay within 210 to 211 °C. Under `O=C(c1cc(Cl)ccc1O)c1cc(Cl)ccc1O` stands 154 °C; under `COc1ccc(C2=NNC(=O)CC2c2ccccc2)cc1` (stereo unspecified), 176 to 177 °C.

As to `COc1ccc2cc(-c3ccc(Cl)c(-n4nc(C)c(C)n4)c3)c(=O)oc2c1`, the melting point was determined as 180 °C. Under `CCOCCn1c(CCl)nc2ccccc21` stands 75.5 to 77 °C.
